Measured values published in ChEMBL document CHEMBL5625279, “Synthesis and antiproliferative activity of a tetrahydrofuran analog of FR901464” (2024).

Key:
Format in all cases: functional
LS174T = test: Antiproliferative activity against human LS174T cells assessed as growth inhibition incubated for 3 days; settings: 72 h, time 3 day
HCT-116 = test: Antiproliferative activity against human HCT-116 cells assessed as growth inhibition incubated for 3 days; settings: HCT-116, 72 h, time 3 day
A549 = test: Antiproliferative activity against human A549 cells assessed as growth inhibition incubated for 3 days; settings: A549, 72 h, time 3 day

Row | GI50 (HCT-116) [nM] | GI50 (A549) [nM] | Structure (SMILES) | GI50 (LS174T) [nM]
1 | 3400 | 8700 | COCO[C@@H](C)/C=C\C(=O)N[C@@H]1C[C@H](C)[C@H](C/C=C(C)/C=C/[C@@H](O)[C@H]2OC(C)(C)C[C@@]23CO3)O[C@@H]1C | 5500
2 | 77 | 608 | COc1cccc2c1C(=O)c1c(O)c3c(c(O)c1C2=O)C[C@@](O)(C(=O)CO)C[C@@H]3O[C@H]1C[C@H](N)[C@H](O)[C@H](C)O1 [DOXORUBICIN] | 248
3 | 3.1 | 3.9 | COCO[C@@H](C)/C=C\C(=O)N[C@@H]1C[C@H](C)[C@H](C/C=C(C)/C=C/[C@H]2OC(C)(C)C[C@@]3(CO3)[C@@H]2O)O[C@@H]1C | 8.4

Row | Structure (SMILES) | GI50 (HCT-116) [nM] | GI50 (A549) [nM] | GI50 (LS174T) [nM]
4 | CC(=O)O[C@@H](C)/C=C\C(=O)N[C@@H]1C[C@H](C)[C@H](C/C=C(C)/C=C/[C@H]2OC(C)(C)C[C@@]3(CO3)[C@@H]2O)O[C@@H]1C | 1.1 | 7.4 | 5.7
